Laboratory results taken from US10654814B2, “Bicyclic hydroxamic acids useful as inhibitors of mammalian histone deacetylase activity” (KANCERA AB, priority 2015, dated 2020).
Counter-ions that a name gives are not always drawn. Like-named read-outs stand apart in the source and are kept apart here.

What was measured:
[1] = test system: U266 (multiple myeloma) cells; assay: CellTiter-Blue cell viability assay, U266; assay type: cell-based; settings: Homo sapiens, U-266; 72 hours of treatment
Experimental: (§1) Method for Measurement of Cell Viability
(§2) The CellTiter-Blue® Cell Viability Assay (Promega) provides a homogeneous, fluorometric method for estimating the number of viable cells present in multi-well plates. The assay uses the indicator dye resazurin to measure the metabolic capacity of cells. Viable cells retain the ability to reduce resazurin into resorufin, which is highly fluorescent.
(§3) Stock solutions (10 mM in DMSO) of compounds were serially diluted 1:2 in 11 concentrations. 50 nL/well (10 mM compound stock in DMSO) was acoustically dispensed in 384-well assay plates with an acoustic dispenser (EDC Biosystems ATS-100AV). Final starting concentration in the assay was 20 μM (0.2% DMSO) for test compounds. The following cell-lines (and origin) have been primarily used: PaCa2 (pancreatic), U266 (multiple myeloma), AMO-1 (plasmacytoma), and MDA-MB-231 (breast adenocarcinoma). PBMCs (peripheral blood mononuclear cells) from healthy donors were used as control cells. Cells were seeded in assay plates (384-well black/clear, Greiner #781091) pre-dispensed with compounds, 25 μL/well, and cultured for 72 hours. After 72 hours, Celltiter Blue reagent (Promega # G8081) was diluted 1:10 with PBS and then added to wells (5 μL/well). The plates were incubated for 2 hours following addition of reagent. The plates were read in an EnVision fluorescence reader (PerkinElmer) with Ex544 nm/Em590 nm. Results were calculated as % cell viability compared to background (cells treated with 0.2% DMSO).

[2] = test system: AMO-1 (plasmacytoma) cells; assay: CellTiter-Blue cell viability assay, AMO-1; assay type: cell-based; settings: Homo sapiens, AMO1; 72 hours of treatment
Experimental: as §1, §2, §3

PaCa2 (pancreatic) cells = assay: CellTiter-Blue cell viability assay, PaCa2; assay type: cell-based; settings: PaCa-2; 72 hours of treatment
Experimental: as §1, §2, §3

[3] = test system: MDA-MB-231 (breast adenocarcinoma) cells; assay: CellTiter-Blue cell viability assay, MDA-MB-231; assay type: cell-based; settings: Homo sapiens, 72 hours of treatment
Experimental: as §1, §2, §3

[4] = test system: PBMCs (peripheral blood mononuclear cells) from healthy donors; assay: CellTiter-Blue cell viability assay, healthy PBMC; assay type: cell-based; settings: 72 hours of treatment
Experimental: as §1, §2, §3

HDAC1 = HDAC1 (Homo sapiens (Human), UniProt Q13547); assay: HDAC1 in vitro enzymatic assay (fluorescence); assay type: biochemical; settings: Table 4 selectivity profiling
Sequence of HDAC1 (Q13547 whole entry): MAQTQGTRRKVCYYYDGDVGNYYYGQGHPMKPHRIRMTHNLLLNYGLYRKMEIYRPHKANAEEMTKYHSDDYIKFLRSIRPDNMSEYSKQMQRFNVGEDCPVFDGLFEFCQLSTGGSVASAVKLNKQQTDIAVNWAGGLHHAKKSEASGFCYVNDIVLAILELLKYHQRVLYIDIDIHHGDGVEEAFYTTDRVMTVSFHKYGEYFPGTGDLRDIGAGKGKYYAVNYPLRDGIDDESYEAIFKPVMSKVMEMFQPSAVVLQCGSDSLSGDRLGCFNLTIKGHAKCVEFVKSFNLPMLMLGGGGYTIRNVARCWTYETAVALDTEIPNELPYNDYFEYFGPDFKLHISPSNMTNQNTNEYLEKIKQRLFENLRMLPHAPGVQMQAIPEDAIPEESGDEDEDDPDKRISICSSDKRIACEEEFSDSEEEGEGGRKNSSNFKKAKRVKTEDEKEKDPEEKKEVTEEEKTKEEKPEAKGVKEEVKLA
Experimental: (§4) Biological Tests Method for Measurement of Enzymatic Activity of HDACs Materials & Methods
(§5) All Examples were tested in HDAC1,2,3,6 and 8 in vitro enzymatic assays. The assay principle is well known (Hauser et al. 2009, Bradner et al. 2010) and all necessary reagents like enzymes, substrates, developer and reference compounds are commercially available (see e.g. BPS Biosciences http://www.bpsbioscience.com/). Stock solutions (10 mM in DMSO) of compounds were serially diluted 1:3 in 11 concentrations with a top concentration of 200 μM for HDAC1,2,3 and 2 μM for HDAC6 and HDAC8. The enzymatic reactions were conducted in a mixture containing assay buffer, bovine serum albumin, HDAC substrate, and a test compound. After enzymatic reaction, developer was added and after an additional incubation time, fluorescence intensity was measured at an excitation wavelength of 360 nm and an emission wavelength of 460 nm. All experiments were performed in duplicate.

HDAC2 = HDAC2 (Homo sapiens (Human), UniProt Q92769); assay: HDAC2 in vitro enzymatic assay (fluorescence); assay type: biochemical; settings: Table 4 selectivity profiling
Sequence of HDAC2 (Q92769 whole entry): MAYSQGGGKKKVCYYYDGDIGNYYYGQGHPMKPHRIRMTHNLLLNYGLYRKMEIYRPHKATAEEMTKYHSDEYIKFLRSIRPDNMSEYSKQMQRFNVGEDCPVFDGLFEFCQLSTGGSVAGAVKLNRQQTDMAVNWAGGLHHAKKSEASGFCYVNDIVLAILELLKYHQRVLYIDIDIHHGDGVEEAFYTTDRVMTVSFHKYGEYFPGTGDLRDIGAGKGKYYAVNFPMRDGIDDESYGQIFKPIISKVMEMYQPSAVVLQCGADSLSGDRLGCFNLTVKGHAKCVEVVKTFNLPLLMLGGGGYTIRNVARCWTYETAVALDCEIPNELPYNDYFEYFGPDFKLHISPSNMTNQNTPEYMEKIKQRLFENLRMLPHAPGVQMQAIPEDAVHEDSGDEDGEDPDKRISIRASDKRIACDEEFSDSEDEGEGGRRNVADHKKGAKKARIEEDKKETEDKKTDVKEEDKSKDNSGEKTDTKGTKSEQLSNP
Experimental: as §4, §5

HDAC3 = HDAC3 (Homo sapiens (Human), UniProt O15379); assay: HDAC3 in vitro enzymatic assay (fluorescence); assay type: biochemical; settings: Table 4 selectivity profiling
Sequence of HDAC3 (O15379 whole entry): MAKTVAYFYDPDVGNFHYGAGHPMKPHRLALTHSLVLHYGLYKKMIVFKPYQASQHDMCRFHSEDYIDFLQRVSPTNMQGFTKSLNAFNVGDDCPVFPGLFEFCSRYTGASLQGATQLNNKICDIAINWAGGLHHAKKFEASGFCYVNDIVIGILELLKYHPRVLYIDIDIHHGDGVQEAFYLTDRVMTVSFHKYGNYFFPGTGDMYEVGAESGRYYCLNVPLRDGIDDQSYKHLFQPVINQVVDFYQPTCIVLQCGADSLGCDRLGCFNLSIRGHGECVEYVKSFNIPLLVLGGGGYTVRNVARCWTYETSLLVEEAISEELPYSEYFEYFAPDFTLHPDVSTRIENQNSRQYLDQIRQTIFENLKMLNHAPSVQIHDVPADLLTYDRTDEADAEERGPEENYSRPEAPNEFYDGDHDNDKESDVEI
Sequence of HDAC3 (Q9Y618 395-489 partner): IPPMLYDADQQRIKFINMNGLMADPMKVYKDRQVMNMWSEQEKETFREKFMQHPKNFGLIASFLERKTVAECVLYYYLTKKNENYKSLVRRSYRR
Experimental: as §4, §5

HDAC6 = HDAC6 (Homo sapiens (Human), UniProt Q9UBN7); assay: HDAC6 in vitro enzymatic assay (fluorescence); assay type: biochemical
Sequence of HDAC6 (Q9UBN7 whole entry): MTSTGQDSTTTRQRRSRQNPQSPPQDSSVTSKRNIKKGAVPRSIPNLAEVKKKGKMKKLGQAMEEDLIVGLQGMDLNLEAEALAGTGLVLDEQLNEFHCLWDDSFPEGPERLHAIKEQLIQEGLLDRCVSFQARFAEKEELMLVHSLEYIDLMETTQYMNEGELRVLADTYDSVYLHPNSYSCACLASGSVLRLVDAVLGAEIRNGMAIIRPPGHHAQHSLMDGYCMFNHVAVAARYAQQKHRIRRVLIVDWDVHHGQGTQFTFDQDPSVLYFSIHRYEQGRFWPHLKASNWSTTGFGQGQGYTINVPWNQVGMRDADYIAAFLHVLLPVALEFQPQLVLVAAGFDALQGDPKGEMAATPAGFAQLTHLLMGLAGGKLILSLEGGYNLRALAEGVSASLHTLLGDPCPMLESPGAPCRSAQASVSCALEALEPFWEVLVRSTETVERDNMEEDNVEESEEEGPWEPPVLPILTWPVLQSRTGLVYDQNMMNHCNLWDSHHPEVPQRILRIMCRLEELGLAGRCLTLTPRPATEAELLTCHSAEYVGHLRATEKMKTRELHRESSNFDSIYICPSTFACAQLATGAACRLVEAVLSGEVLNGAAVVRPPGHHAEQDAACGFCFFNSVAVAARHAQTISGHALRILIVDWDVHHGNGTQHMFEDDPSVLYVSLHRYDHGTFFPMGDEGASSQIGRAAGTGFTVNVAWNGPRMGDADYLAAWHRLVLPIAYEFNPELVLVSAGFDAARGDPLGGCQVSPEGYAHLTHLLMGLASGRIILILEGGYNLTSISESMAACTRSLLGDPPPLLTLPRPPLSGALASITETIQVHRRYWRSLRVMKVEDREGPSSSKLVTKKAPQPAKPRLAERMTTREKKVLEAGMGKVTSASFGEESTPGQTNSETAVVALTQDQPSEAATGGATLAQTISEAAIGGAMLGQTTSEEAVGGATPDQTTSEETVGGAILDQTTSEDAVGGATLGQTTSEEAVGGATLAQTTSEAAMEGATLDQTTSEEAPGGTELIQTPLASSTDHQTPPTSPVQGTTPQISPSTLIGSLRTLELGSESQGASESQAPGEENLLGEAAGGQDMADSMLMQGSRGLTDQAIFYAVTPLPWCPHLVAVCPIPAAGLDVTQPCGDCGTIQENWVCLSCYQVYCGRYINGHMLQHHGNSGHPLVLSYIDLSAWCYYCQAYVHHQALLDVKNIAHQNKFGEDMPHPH
Experimental: as §4, §5

HDAC8 = HDAC8 (Homo sapiens (Human), UniProt Q9BY41); assay: HDAC8 in vitro enzymatic assay (fluorescence); assay type: biochemical; settings: Table 4 selectivity profiling
Sequence of HDAC8 (Q9BY41 whole entry): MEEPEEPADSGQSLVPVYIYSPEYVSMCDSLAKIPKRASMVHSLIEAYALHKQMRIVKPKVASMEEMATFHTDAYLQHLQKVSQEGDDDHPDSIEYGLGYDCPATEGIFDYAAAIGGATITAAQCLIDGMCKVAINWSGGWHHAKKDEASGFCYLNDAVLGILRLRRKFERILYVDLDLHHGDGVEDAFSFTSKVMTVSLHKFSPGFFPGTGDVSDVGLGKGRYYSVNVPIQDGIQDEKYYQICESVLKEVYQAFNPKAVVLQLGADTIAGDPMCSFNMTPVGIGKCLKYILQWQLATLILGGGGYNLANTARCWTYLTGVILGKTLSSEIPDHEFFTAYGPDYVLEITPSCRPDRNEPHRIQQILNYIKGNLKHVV
Experimental: as §4, §5

[5] = Table 3, read-out: IC50 (nM) for inhibition of HDAC6
[6] = Table 4 selectivity profiling, read-out: IC50 (nM) HDAC6

| SMILES | IC50 [1] | IC50 [2] | IC50 (PaCa2 (pancreatic) cells) | IC50 [3] | IC50 [4] | IC50 (HDAC1) | IC50 (HDAC2) | IC50 (HDAC3) | IC50 (HDAC6; [5]) | IC50 (HDAC6; [6]) | IC50 (HDAC8) |
| --- | --- | --- | --- | --- | --- | --- | --- | --- | --- | --- | --- |
| COc1ccc(F)cc1-c1ccc(-c2nc3cc(C(=O)NO)ccc3o2)c(F)c1 [Example 193, 2-(3,5′-difluoro-2′-methoxybiphenyl-4-yl)-N-hydroxy-1,3-benzoxazole-5-carboxamide] | 1.2 µM | 2.3 µM | 2.2 µM | 0.98 µM | > 20 µM | – | – | – | – | – | – |
| CC(C)c1ccc(-c2cc3cc(C(=O)NO)cnc3o2)cc1 [Example 113, N-Hydroxy-2-[4-(1-methylethyl)phenyl]furo[2,3-b]pyridine-5-carboxamide] | – | – | – | – | – | 500 nM | 2000 nM | 330 nM | 22 nM | 22 nM | 120 nM |
| O=C(NO)c1ccc2sc(-c3ccc(F)cc3)nc2c1 [Example 76, 2-(4-Fluorophenyl)-N-hydroxy-1,3-benzothiazole-5-carboxamide] | – | – | – | – | – | 1500 nM | 6600 nM | 450 nM | 18 nM | 18 nM | 340 nM |
| CC(C)c1ccc(-c2cc3ccc(C(=O)NO)cc3[nH]2)cc1 [Example 59, N-Hydroxy-2-[4-(1-methylethyl)phenyl]-1H-indole-6-carboxamide] | 1.7 µM | 0.66 µM | 1.4 µM | 1.2 µM | > 20 µM | – | – | – | – | – | – |
| O=C(NO)c1ccc2oc(-c3ccc(C4CC4)cc3)nc2c1 [Example 29, 2-(4-Cyclopropylphenyl)-N-hydroxy-1,3-benzoxazole-5-carboxamide] | – | – | – | – | – | 2100 nM | 10000 nM | 1000 nM | 10 nM | 10 nM | 1400 nM |
| COc1ccc(-c2ccc(-c3nc4cc(C(=O)NO)ccc4o3)c(F)c2)cn1 [Example 176, 2-[2-fluoro-4-(6-methoxypyridin-3-yl)phenyl]-N-hydroxy-1,3-benzoxazole-5-carboxamide] | – | – | – | – | – | > 200000 nM | > 200000 nM | 960 nM | – | 16 nM | 384 nM |
| Cc1noc(C)c1-c1cc2cc(C(=O)NO)ccc2s1 [Example 100, 2-(3,5-dimethylisoxazol-4-yl)-N-hydroxy-1-benzothiophene-5-carboxamide] | – | – | – | – | – | 14000 nM | 74000 nM | 18000 nM | 36 nM | 36 nM | 760 nM |
| CC(C)c1ccc(-c2cc3cc(C(=O)NO)ccc3o2)cc1 [Example 111, N-Hydroxy-2-[4-(1-methylethyl)phenyl]-1-benzofuran-5-carboxamide] | 0.67 µM | 0.67 µM | 1.3 µM | 1.2 µM | > 20 µM | – | – | – | – | – | – |
| O=C(NO)c1ccc2oc(-c3ccc(C(F)(F)F)cc3)nc2c1 [Example 18, N-hydroxy-2-[4-(trifluoromethyl)phenyl]-1,3-benzoxazole-5-carboxamide] | – | – | – | – | – | 2000 nM | 11000 nM | 1600 nM | – | 37 nM | 1300 nM |
| O=C(NO)c1ccc2oc(COc3cccc(F)c3)cc2c1 [Example 162, 2-[(3-Fluorophenoxy)methyl]-N-hydroxy-1-benzofuran-5-carboxamide] | – | – | – | – | – | 550 nM | 3500 nM | 320 nM | 7 nM | 7 nM | 1500 nM |
| O=C(NO)c1ccc2oc(-c3ccccc3Cl)nc2c1 [Example 12, 2-(2-chlorophenyl)-N-hydroxy-1,3-benzoxazole-5-carboxamide] | – | – | – | – | – | 1200 nM | 52000 nM | 560 nM | 5 nM | 5 nM | 880 nM |
| CC(C)(C)c1ccc(-c2cc3cc(C(=O)NO)ccc3s2)cc1 [Example 103, 2-(4-tert-butylphenyl)-N-hydroxy-1-benzothiophene-5-carboxamide] | 0.55 µM | 0.49 µM | 1.46 µM | 0.6 µM | > 20 µM | – | – | – | – | – | – |
| O=C(NO)c1ccc2nc(Nc3cccc(OCc4ccccc4)c3)[nH]c2c1 [Example 132, 2-((3-(benzyloxy)phenyl)amino)-N-hydroxy-1H-benzo[d]imidazole-6-carboxamide] | – | – | – | – | – | 1200 nM | 24000 nM | 370 nM | 17 nM | 17 nM | 240 nM |
| COc1cccc(-c2cc3ccc(C(=O)NO)cc3o2)c1 [Example 285, N-hydroxy-2-(3-methoxyphenyl)-1-benzofuran-6-carboxamide] | – | – | – | – | – | 470 nM | 6900 nM | 640 nM | 4 nM | 4 nM | 210 nM |
| O=C(NO)c1ccc2sc(-c3cccnc3)cc2c1 [Example 96, N-hydroxy-2-pyridin-3-yl-1-benzothiophene-5-carboxamide] | – | – | – | – | – | 9700 nM | 55000 nM | 7200 nM | 64 nM | 64 nM | 960 nM |
| Cn1c(Nc2ccccc2)nc2cc(C(=O)NO)ccc21 [Example 137, N-Hydroxy-1-methyl-2-(phenylamino)-1H-benzimidazole-5-carboxamide] | – | – | – | – | – | – | – | – | 39 nM | – | – |
| Cn1c(NCCc2ccccc2)nc2cc(C(=O)NO)ccc21 [Example 140, N-hydroxy-1-methyl-2-(phenethylamino)-1H-benzo[d]imidazole-5-carboxamide] | – | – | – | – | – | – | – | – | 10 nM | – | – |
| O=C(NO)c1ccc2oc(-c3ccc(NC4CCCCCC4)nc3)nc2c1 [Example 158, 2-[6-(cycloheptylamino)pyridin-3-yl]-N-hydroxy-1,3-benzoxazole-5-carboxamide trifluoroacetate] | – | – | – | – | – | – | – | – | 34 nM | – | – |
| O=C(NO)c1ccc2sc(COCc3ccccc3)nc2c1 [Example 270, 2-[(Benzyloxy)methyl]-N-hydroxy-1,3-benzothiazole-5-carboxamide] | – | – | – | – | – | – | – | – | 4 nM | – | – |
| O=C(NO)c1ccc2sc(-c3ccc4[nH]ccc4c3)cc2c1 [Example 95, N-hydroxy-2-(1H-indol-5-yl)-1-benzothiophene-5-carboxamide] | – | – | – | – | – | – | – | – | 22 nM | – | – |
| O=C(NO)c1ccc2nc(-c3cccc4cccnc34)sc2c1 [Example 70, N-hydroxy-2-quinolin-8-yl-1,3-benzothiazole-6-carboxamide] | – | – | – | – | – | 6100 nM | 19000 nM | 2300 nM | – | 65 nM | 320 nM |
| CN(C)Cc1ccc(-c2cc3ccc(C(=O)NO)cc3o2)cc1 [Example 283, 2-{4-[(dimethylamino)methyl]phenyl}-N-hydroxy-1-benzofuran-6-carboxamide trifluoroacetate] | – | – | – | – | – | – | – | – | 7 nM | – | – |
| CCN(CC)Cc1cc2ccc(C(=O)NO)cc2o1 [Example 117, 2-[(Diethylamino)methyl]-N-hydroxy-1-benzofuran-6-carboxamide trifluoroacetate] | – | – | – | – | – | 19000 nM | 69000 nM | 25000 nM | 64 nM | 26 nM | 1400 nM |
| O=C(NO)c1ccc2oc(-c3ccc(N4CCCC4)nc3)nc2c1 [Example 41, N-Hydroxy-2-(6-pyrrolidin-1-ylpyridin-3-yl)-1,3-benzoxazole-5-carboxamide trifluoroacetate] | – | – | – | – | – | – | – | – | 22 nM | – | – |
| O=C(NO)c1ccc2nc(-c3ccc(-c4cccnc4)nc3)oc2c1 [Example 55, 2-(2,3′-Bipyridin-5-yl)-N-hydroxy-1,3-benzoxazole-6-carboxamide trifluoroacetate] | – | – | – | – | – | – | – | – | 81 nM | – | – |
| Cn1c(N2CCc3ccccc3C2)nc2cc(C(=O)NO)ccc21 [Example 145, 2-(3,4-dihydroisoquinolin-2(1H)-yl)-N-hydroxy-1-methyl-1H-benzo[d]imidazole-5-carboxamide] | – | – | – | – | – | – | – | – | 42 nM | – | – |
| O=C(NO)c1ccc2oc(NCc3ccc(-c4ccccc4)cc3)nc2c1 [Example 234, 2-[(biphenyl-4-ylmethyl)amino]-N-hydroxy-1,3-benzoxazole-5-carboxamide] | – | – | – | – | – | – | – | – | 4 nM | – | – |
